Measured values published in publication PMC9503459, “Antifungal Activity, Structural Stability, and Immunomodulatory Effects on Human Immune Cells of Defensin from the Lentil Lens culinaris” (Membranes, 2022).
Values joined by “and” are separate entries in the source; they are usually repeats but may differ in a detail not shown here. Identical values can stand only once. No end group written: not given here.

System: regulatory CD4+ FoxP3+ T cells (Tregs)
Test: Cytokine response by multiplex xMAP, Tregs
Type: cell-based, human
Details: CD4+CD25+ Tregs, 2 µM, 24 h
Procedure: Colorectal adenocarcinoma Caco-2 cell line (ATCC HTB-37) was cultured in complete DMEM/F12 (1:1) medium containing 10% fetal bovine serum (FBS, Gibco) and 1X antibiotic-antimycotic solution (1XAAS, Invitrogen, Waltham, MA, USA). The acute monocytic leukemia THP-1 line (ATCC TIB-202) was cultured in complete RPMI-1640 medium, containing 10% FBS, 1XAAS, and […]. THP-1 cells were differentiated into pro-inflammatory macrophages (Mφ1) with phorbol 12-myristate 13-acetate (Sigma-Aldrich) for 24 h and subsequently polarized with lipopolysaccharide from E. coli (Sigma-Aldrich) and rhIFN-γ (Sigma-Aldrich) for another 48 h according to previously reported protocol. All cells were cultured in a humidified CO2 incubator (5% CO2, 37 °C). Primary peripheral blood mononuclear cells (PBMCs) collected from a healthy donor were purchased from American Type Culture Collection (ATCC PCS-800-011). CD4^+ T-helper and CD8^+ T cytotoxic cells were isolated from PBMCs by magnetic separation with mouse anti-human CD4-PE (clone 13B8.2, Beckman Coulter Diagnostics, Pasadena, CA, USA) and CD8-PE (clone REA734, Miltenyi Biotec, Bergisch Gladbach, Germany), Anti-PE MicroBeads (Miltenyi Biotec), and LS Separation Columns (Miltenyi Biotec). Isolated CD4^+ and CD8^+ cells were expanded separately with Dynabeads™ Human T-Expander CD3/CD28 (Gibco, Waltham, MA, USA) in RPMI-1640 supplemented with 10% FBS, 1XAAS and 100 U/mL rh-IL-2 (Gibco). Regulatory CD4^+ FoxP3^+ T cells (Tregs) were isolated from PBMCs by magnetic separation with CD4^+CD25^+ Regulatory T Cell Isolation Kit, human (Miltenyi Biotec). Primary CD14^+ blood monocytes were isolated from PBMCs by adherence according to standard technique. Monocyte-derived mature dendritic cells (moDCs) were obtained from CD14^+ blood monocytes according to the previously reported protocol. Briefly, blood monocytes were incubated in complete RPMI-1640 medium, containing 10% FBS, 1XAAS, 800 U/mL rhGM-CSF (Sci-Store, Russia, Moscow) and 500 U/mL rhIL-4 (Sci-Store) for 3 days. Fresh complete RPMI-1640 medium with rhGM-CSF and rhIL-4 was added to the culture on day 3. On day 5, fresh complete RPMI-1640 containing 100 U/mL rhTNF-α (Sigma) as well as 800 U/mL rhGM-CSF and 500 U/mL rhIL-4 was added and the culture was incubated for another 4 days until full maturation.
Caco-2 cells were seeded into the wells of a 48-well plate, coated with 0.1% bovine collagen (Sigma-Aldrich) for 24 h, 3 weeks before the experiment with complete DMEM/F12 (1:1) medium renewal every 2–3 days. Monocytes, moDCs, CD4^+ T-helper and CD8^+ T cytotoxic cells, Mφ1, and Regulatory CD4^+ FoxP3^+ T cells were seeded into the wells of 48-well plates in the complete RPMI-1640 medium supplemented with 10% Human AB serum (HABS, Capricorn Scientific, Ebsdorfergrund, Germany) and 1XAAS 24 h prior to the experiment; medium in Caco-2-containing wells was also replaced with the same medium. After 24 h, half of the medium in each well was replaced by fresh complete RPMI-1640 medium with 10% HABS, supplemented with 4 µM of Lc-def for the sample wells or fresh medium alone for the control wells. Cell cultures were kept in CO2-incubator (5% CO2, 37 °C) for another 24 h. Culture supernatants were collected 24 h later and stored at −70 °C degrees less than one month prior to the analytes assessment. […]

How did the EGF turn out when “Lc-def: defensin from lentil Lens culinaris seeds (UniProt:B3F051), recombinant, overexpressed in Escherichia coli (KTCENLSDSFKGPCIPDGNCNKHCKEKEHLLSGRCRDDFRCWCTRNC; disulfide (positions not given here); ends not checked; also: disulfide bonds present, pairing not given here; UniProt B3F051 28-74, looked up)” was run?
Its EGF is 4.15 pg/mL.

And the Eotaxin?
The Eotaxin was <3.23↓ pg/ml.

And the FGF-2?
Its FGF-2 is 34.19 pg/mL.

And the FLT-3L?
The FLT-3L was 0.62 pg/mL.

What about the Fractalkine of the same substance?
Its Fractalkine is <23.19↓ pg/ml.

What about the G-CSF of the same substance?
The G-CSF was 9.93 pg/mL.

And the GM-CSF?
Its GM-CSF is 54.75 pg/mL.

And the GROa?
The GROa was 29.97 pg/mL.

And the IFNa2?
Its IFNa2 is <4.43↓ pg/ml.

What about the IFNg of the same substance?
The IFNg was 38.55 pg/mL.

And the IL-1RA?
The IL-1RA was 1.04 pg/mL.

What about the IL-1a of the same substance?
The IL-1a was 19.36 pg/mL.

What about the IL-1b of the same substance?
The IL-1b was <18.72↓ pg/ml.

And the IL-2?
Its IL-2 is 4.82 pg/mL.

What about the IL-3 of the same substance?
The IL-3 was <0.48↓ pg/ml.

And the IL-4?
The IL-4 was <0.31↓ pg/ml.

And the IL-5?
The IL-5 was <0.24↓ pg/ml.

What about the IL-6 of the same substance?
The IL-6 was 317 pg/mL and 317.05 pg/mL.

And the IL-7?
The IL-7 was <0.33↓ pg/ml.

And the IL-8?
The IL-8 was 1247 pg/mL.

What about the IL-9 of the same substance?
Its IL-9 is 5.08 pg/mL.

And the IL-10?
Its IL-10 is 42.25 pg/mL.

What about the “IL-12 (p40)” value of the same substance?
The value was 19.56 pg/mL.

And the “IL-12 (p70)” value?
Its value is 3.39 pg/mL.

And the IL-13?
The IL-13 was 7.95 pg/mL.

What about the IL-15 of the same substance?
The IL-15 was <1.45↓ pg/ml.

And the IL-17A?
The IL-17A was 2.6 pg/mL.

And the IL-17E/IL-25?
Its IL-17E/IL-25 is <20.59↓ pg/ml.

What about the IL-17F of the same substance?
Its IL-17F is 51.91 pg/mL.

And the IL-18?
The IL-18 was 0.56 pg/mL.

And the IL-22?
The IL-22 was 24.29 pg/mL.

What about the IL-27 of the same substance?
Its IL-27 is 84.77 pg/mL.

And the IP-10?
Its IP-10 is 114.68 pg/mL.

What about the M-GSF of the same substance?
Its M-GSF is <23.75↓ pg/ml.

What about the MCP-1 of the same substance?
The MCP-1 was 505 pg/mL and 505.45 pg/mL.

And the MCP-3?
Its MCP-3 is 21.04 pg/mL.

What about the MDC of the same substance?
The MDC was 968.96 pg/mL.

And the MIG?
The MIG was 479.53 pg/mL.

What about the MIP-1a of the same substance?
The MIP-1a was 233 pg/mL and 233.56 pg/mL.

What about the MIP-1b of the same substance?
The MIP-1b was 313.49 pg/mL.

And the PDGF-AA?
Its PDGF-AA is <7.38↓ pg/ml.

What about the PDGF-AB/BB of the same substance?
Its PDGF-AB/BB is 119.45 pg/mL.

What about the RANTES of the same substance?
Its RANTES is 12.31 pg/mL.

And the TGF-a?
Its TGF-a is 1.25 pg/mL.

And the TNFa?
Its TNFa is 97.83 pg/mL.

What about the TNFb of the same substance?
Its TNFb is 2.32 pg/mL.

What about the VEGFa of the same substance?
Its VEGFa is <1.27↓ pg/ml.

What about the sCD40L of the same substance?
Its sCD40L is 66.54 pg/mL.
